Where two headings read alike, the source gives them in different places.
Target: Human LDHA (Homo sapiens (Human), UniProt P00338)
Assay: human LDHA primary biochemical assay (resazurin/diaphorase coupled, fluorescence)
Text: Test compounds were placed in a Greiner Bio-One (Monroe, N.C.) 1536-well black solid bottom assay plate. 200 millimolar (mM) Tris HCl, pH 7.4, 100 micromolar […] EDTA and 0.01% TWEEN-20™, final concentration, was used as the assay buffer. The LDHA reagent was 2 nanomolar (nM) Human LDHA (Meridian Life Science, Inc., Memphis, Tenn.), final concentration, in assay buffer.

[1] = read-out: Inhibitory activity IC50
[2] = LDHA inhibitory activity, assay of Example 1, activity level classes

Row | IC50 [1] | IC50 [2] | SMILES
1 | 1000 to 57000 nM |  | O=C(O)c1csc(-n2cc(Br)c(-c3cccc(-c4ccccc4)c3)n2)n1 [Compound 21, 2-(3-([1,1′-biphenyl]-3-yl)-4-bromo-1H-pyrazol-1-yl)thiazole-4-carboxylic acid]
2 | 1000 to 57000 nM |  | O=C(O)c1csc(-n2ccc(-c3cccc(-c4ccccc4)c3)n2)n1 [Compound 22, 2-(3-([1,1′-biphenyl]-3-yl)-1H-pyrazol-1-yl)thiazole-4-carboxylic acid]
3 |  | > 57000 nM | O=C(O)c1csc(-n2cc(-c3ccc(F)c(F)c3)c3cccnc32)n1 [Compound 23, 2-(3-(3,4-difluorophenyl)-1H-pyrrolo[2,3-b]pyridin-1-yl)thiazole-4-carboxylic acid]
4 | 100 to 1000 nM |  | NS(=O)(=O)c1ccc(Oc2c(-c3ccccc3)nn(-c3nc(C(=O)O)cs3)c2O)cc1 [Compound 24, 2-(5-hydroxy-3-phenyl-4-(4-sulfamoylphenoxy)-1H-pyrazol-1-yl)thiazole-4-carboxylic acid]
5 |  | > 57000 nM | O=C(O)c1csc(-n2nc(-c3ccc(F)c(F)c3)c3cccnc32)n1 [Compound 25, 2-(3-(3,4-difluorophenyl)-1H-pyrazolo[3,4-b]pyridin-1-yl)thiazole-4-carboxylic acid]
6 | 100 to 1000 nM |  | NS(=O)(=O)c1ccc(Cc2cn(-c3nc(C(=O)O)cs3)c3ncccc23)cc1 [Compound 26, 2-(3-(4-sulfamoylbenzyl)-1H-pyrrolo[2,3-b]pyridin-1-yl)thiazole-4-carboxylic acid]
7 |  | > 57000 nM | CS(=O)(=O)c1ccc(Cc2cn(-c3nc(C(=O)O)cs3)nc2-c2ccccc2)cc1 [Compound 27, 2-(4-(4-(methylsulfonyl)benzyl)-3-phenyl-1H-pyrazol-1-yl)thiazole-4-carboxylic acid]
8 |  | > 57000 nM | O=C(O)c1csc(-n2cc(Cc3ccc(C(F)(F)F)cc3)c(-c3ccccc3)n2)n1 [Compound 28, 2-(3-phenyl-4-(4-(trifluoromethyl)benzyl)-1H-pyrazol-1-yl)thiazole-4-carboxylic acid]
9 |  | > 57000 nM | O=C(O)c1csc(-n2cc(-c3cccc(-c4ccccc4)c3)c3cccnc32)n1 [Compound 29, 2-(3-([1,1′-biphenyl]-3-yl)-1H-pyrrolo[2,3-b]pyridin-1-yl)thiazole-4-carboxylic acid]
10 | 1000 to 57000 nM |  | NS(=O)(=O)c1ccc(Cc2cn(-c3nc(C(=O)O)cs3)c3ccc(C(=O)N4CCOCC4)cc23)cc1 [Compound 30, 2-(5-(morpholine-4-carbonyl)-3-(4-sulfamoylbenzyl)-1H-indol-1-yl)thiazole-4-carboxylic acid]
11 | 100 to 1000 nM |  | NS(=O)(=O)c1ccc(Cc2cn(-c3nc(C(=O)O)cs3)c3ccc(F)cc23)cc1 [Compound 31, 2-(5-fluoro-3-(4-sulfamoylbenzyl)-1H-indol-1-yl)thiazole-4-carboxylic acid]
12 | 1000 to 57000 nM |  | NS(=O)(=O)c1ccc(Cc2cn(-c3nc(C(=O)O)cs3)c3ccc(CN4CCOCC4)cc23)cc1 [Compound 32, 2-(5-(morpholinomethyl)-3-(4-sulfamoylbenzyl)-1H-indol-1-yl)thiazole-4-carboxylic acid]
13 | 100 to 1000 nM |  | NS(=O)(=O)c1ccc(Cc2cn(-c3nc(C(=O)O)cs3)c3ccncc23)cc1 [Compound 34, 2-(3-(4-sulfamoylbenzyl)-1H-pyrrolo[3,2-c]pyridin-1-yl)thiazole-4-carboxylic acid]
14 | 1000 to 57000 nM |  | NS(=O)(=O)c1ccc(Cc2nn(-c3nc(C(=O)O)cs3)c3ccccc23)cc1 [Compound 35, 2-(3-(4-sulfamoylbenzyl)-1H-indazol-1-yl)thiazole-4-carboxylic acid]
15 | 100 to 1000 nM |  | NS(=O)(=O)c1ccc(Cc2cn(-c3nc(C(=O)O)cs3)c3ccc(OC4CCOCC4)cc23)cc1 [Compound 36, 2-(3-(4-sulfamoylbenzyl)-5-((tetrahydro-2H-pyran-4-yl)oxy)-1H-indol-1-yl)thiazole-4-carboxylic acid]
16 | 1000 to 57000 nM |  | NS(=O)(=O)c1ccc(Cc2cn(-c3nc(C(=O)O)cs3)c3cc(C(=O)N4CCOCC4)ccc23)cc1 [Compound 37, 2-(6-(morpholine-4-carbonyl)-3-(4-sulfamoylbenzyl)-1H-indol-1-yl)thiazole-4-carboxylic acid]
17 |  | < 100 nM | Nc1c(Cc2ccc(S(N)(=O)=O)cc2)c(-c2ccc(F)c(F)c2)nn1-c1nc(C(=O)O)cs1 [Compound 38, 2-(5-amino-3-(3,4-difluorophenyl)-4-(4-sulfamoylbenzyl)-1H-pyrazol-1-yl)thiazole-4-carboxylic acid]
18 |  | < 100 nM | NS(=O)(=O)c1ccc(Cc2c(-c3ccc(F)c(F)c3)nn(-c3nc(C(=O)O)cs3)c2C(F)(F)F)cc1 [Compound 39, 2-(3-(3,4-difluorophenyl)-4-(4-sulfamoylbenzyl)-5-(trifluoromethyl)-1H-pyrazol-1-yl)thiazole-4-carboxylic acid]
19 |  | < 100 nM | NS(=O)(=O)c1ccc(Cc2c(-c3ccccc3)nn(-c3nc(C(=O)O)cs3)c2C(F)(F)F)cc1 [Compound 44, 2-(3-phenyl-4-(4-sulfamoylbenzyl)-5-(trifluoromethyl)-1H-pyrazol-1-yl)thiazole-4-carboxylic acid]
20 |  | < 100 nM | NS(=O)(=O)c1ccc(Cc2c(-c3ccccc3)nn(-c3nc(C(=O)O)cs3)c2I)cc1 [Compound 45, 2-(5-iodo-3-phenyl-4-(4-sulfamoylbenzyl)-1H-pyrazol-1-yl)thiazole-4-carboxylic acid]
21 |  | > 57000 nM | NS(=O)(=O)c1ccc(NCc2c(-c3ccccc3)n[nH]c2O)cc1 [Compound 49, 4-(((5-hydroxy-3-phenyl-1H-pyrazol-4-yl)methyl)amino)benzenesulfonamide]
22 | 1000 to 57000 nM |  | CCOC(=O)c1csc(-n2nc(-c3cccc(-c4ccccc4)c3)c(Cc3ccc(S(N)(=O)=O)cc3)c2N)n1 [Compound 56, ethyl 2-(3-([1,1′-biphenyl]-3-yl)-5-amino-4-(4-sulfamoylbenzyl)-1H-pyrazol-1-yl)thiazole-4-carboxylate]
23 | 100 to 1000 nM |  | Cc1sc(-n2nc(-c3ccccc3)c(Cc3ccc(S(N)(=O)=O)cc3)c2N)nc1C(=O)O [Compound 57, 2-(5-amino-3-phenyl-4-(4-sulfamoylbenzyl)-1H-pyrazol-1-yl)-5-methylthiazole-4-carboxylic acid]
24 | 1000 to 57000 nM |  | CCOC(=O)c1csc(-n2nc(-c3ccccc3)c(Cc3ccc(S(N)(=O)=O)cc3)c2N)n1 [Compound 58, ethyl 2-(5-amino-3-phenyl-4-(4-sulfamoylbenzyl)-1H-pyrazol-1-yl)thiazole-4-carboxylate]
25 | 100 to 1000 nM |  | N#CCc1c(Cc2ccc(S(N)(=O)=O)cc2)c(-c2ccccc2)nn1-c1nc(C(=O)O)cs1 [Compound 59, 2-(5-(cyanomethyl)-3-phenyl-4-(4-sulfamoylbenzyl)-1H-pyrazol-1-yl)thiazole-4-carboxylic acid]
26 |  | 100 to 1000 nM | COc1c(Cc2ccc(S(N)(=O)=O)cc2)c(-c2ccc(F)c(F)c2)nn1-c1nc(C(=O)O)cs1 [Compound 60, 2-(3-(3,4-difluorophenyl)-5-methoxy-4-(4-sulfamoylbenzyl)-1H-pyrazol-1-yl)thiazole-4-carboxylic acid]
27 | 100 to 1000 nM |  | CCOc1c(Cc2ccc(S(N)(=O)=O)cc2)c(-c2ccc(F)c(F)c2)nn1-c1nc(C(=O)O)cs1 [Compound 61, 2-(3-(3,4-difluorophenyl)-5-ethoxy-4-(4-sulfamoylbenzyl)-1H-pyrazol-1-yl)thiazole-4-carboxylic acid]
28 |  | > 57000 nM | O=C(O)c1csc(-n2nc(-c3ccc(F)c(F)c3)cc2CO)n1 [Compound 64, 2-(3-(3,4-difluorophenyl)-5-(hydroxymethyl)-1H-pyrazol-1-yl)thiazole-4-carboxylic acid]
29 |  | > 57000 nM | Cc1nn(-c2nc(C(=O)O)cs2)c(O)c1Cc1ccc(S(N)(=O)=O)cc1 [Compound 66, 2-(5-hydroxy-3-methyl-4-(4-sulfamoylbenzyl)-1H-pyrazol-1-yl)thiazole-4-carboxylic acid]

Row | SMILES | IC50 [1] | IC50 [2]
30 | NS(=O)(=O)c1ccc(Cc2cn(-c3nc(C(=O)O)cs3)nc2-c2ccccc2)cc1 [Compound 19, 2-(3-phenyl-4-(4-sulfamoylbenzyl)-1H-pyrazol-1-yl)thiazole-4-carboxylic acid] | < 100 nM | 
31 | NS(=O)(=O)c1ccc(Oc2cn(-c3nc(C(=O)O)cs3)nc2-c2ccccc2)cc1 [Compound 33, 2-(3-phenyl-4-(4-sulfamoylphenoxy)-1H-pyrazol-1-yl)thiazole-4-carboxylic acid] | < 100 nM | 
32 | NS(=O)(=O)c1ccc(Cc2cn(-c3nc(C(=O)O)cs3)nc2-c2ccc(F)c(F)c2)cc1 [Compound 41, 2-(3-(3,4-difluorophenyl)-4-(4-sulfamoylbenzyl)-1H-pyrazol-1-yl)thiazole-4-carboxylic acid] |  | < 100 nM
33 | N#Cc1c(Cc2ccc(S(N)(=O)=O)cc2)c(-c2ccccc2)nn1-c1nc(C(=O)O)cs1 [Compound 50] |  | < 100 nM
34 | O=C(O)c1csc(-n2nc(-c3ccccc3)cc2C(F)(F)F)n1 [Compound 62, 2-(3-phenyl-5-(trifluoromethyl)-1H-pyrazol-1-yl)thiazole-4-carboxylic acid] | 1000 to 57000 nM | 
35 | O=C(O)c1csc(-n2nc(-c3cccc(-c4ccccc4F)c3)cc2O)n1 [Compound 63, 2-(3-(2′-fluoro-[1,1′-biphenyl]-3-yl)-5-hydroxy-1H-pyrazol-1-yl)thiazole-4-carboxylic acid] | > 57000 nM | 
36 | NC(=O)c1ccc(Cc2c(-c3cccc(-c4ccccc4)c3)nn(-c3nc(C(=O)O)cs3)c2O)cc1 [Compound 67, 2-(3-([1,1′-biphenyl]-3-yl)-4-(4-carbamoylbenzyl)-5-hydroxy-1H-pyrazol-1-yl)thiazole-4-carboxylic acid] |  | > 57000 nM
37 | O=C(O)c1ccc(Cc2c(-c3cccc(-c4ccccc4)c3)nn(-c3nc(C(=O)O)cs3)c2O)cc1 [Compound 68, 2-(3-([1,1′-biphenyl]-3-yl)-4-(4-carboxybenzyl)-5-hydroxy-1H-pyrazol-1-yl)thiazole-4-carboxylic acid] | > 57000 nM | 

Reference: US10961200B2, “Small molecule inhibitors of lactate dehydrogenase and methods of use thereof” (THE UNITED STATES OF AMERICA, AS REPRESENTED BY THE …, priority 2014, dated 2021)
